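Grown in 96-well plates, cells were treated for 48 hours with each compound at five concentrations. Insufficient inhibition: endpoint recorded as highest concentration tested. The concentration for 50% growth inhibition is given as GI50.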 Activity calls are given as the source filed them. Rule as the data show it: active = GI50 up to about 1.1 µM and inactive = higher. Where only a bound is given, the exact number is not on record here.

Assay in all cases: inhibition of tumour cell growth, NCI panel, 48 h
Assay [1] has as its system Malme-3M.
In assay [2] the test system is CCRF-CEM.
Assay [3] deals with NCI-H23.
Assay [4] concerns COLO 205.
In assay [5] the test system is HOP-62.
The subject of assay [6] is SK-MEL-2.
Assay [7] relates to SW-620.
In assay [8] the test system is HOP-92.
For assay [9], the system named is HCT-15.
Assay [10] deals with UACC-257.
The test system of assay [11] is SF-295.
The subject of assay [12] is HCT-116.
Assay [13] deals with IGROV-1.
Assay [14] concerns OVCAR-5.
Assay [15] relates to LOX IMVI.
For assay [16], the system named is OVCAR-4.
Assay [17] has as its system A498.
In assay [18] the test system is PC-3.
In assay [19] the test system is MDA-MB-435.

Turning to `O=c1[nH]c(=O)n(C2CC(O)C(O)C(CO)O2)cc1F` (stereo not given), the GI50 in assay [1], in [2], in assay [3], in assay [4], in assay [5] and in assay [6] was > 100 µM (inactive) in each case. Further, the GI50 in assay [7] is > 100 µM (inactive); in [8], > 100 µM (inactive); in assay [9], over 100 µM; in assay [10] it was > 100 µM (inactive); in [11], > 100 µM (inactive); in assay [12] it was > 100 µM (inactive). In addition, the GI50 in [13], in [14], in assay [15], in [16] and in [17] was > 100 µM (inactive) each time.
With `Cn1ccnc1CCc1ccc(Cl)c(Cl)c1`, the GI50 in assay [1], in [2], in assay [3], in [4], in [5] and in assay [6] was > 100 µM (inactive) each time. The GI50 is > 100 µM (inactive) in [7]; 43.3 µM (inactive) in assay [8]; over 100 µM in assay [9]; > 100 µM (inactive) in [10]; > 100 µM (inactive) in assay [11]; > 100 µM (inactive) in assay [12]. For the same compound, the GI50 in [13] was > 100 µM (inactive); in assay [14] it was > 100 µM (inactive); in [15], > 100 µM (inactive); in assay [16] it was > 100 µM (inactive); in assay [17], 73.5 µM (inactive).
In the case of `C=C1N(C=O)C(C)(C)N(O)C1(C)C`, the GI50 in assay [1], in assay [18], in [3], in assay [4], in assay [5] and in assay [6] was > 100 µM (inactive) throughout. Further, the GI50 in [7] is > 100 µM (inactive); in assay [8] it was > 100 µM (inactive); in assay [9] it was over 100 µM; in assay [10], > 100 µM (inactive); in assay [11], > 100 µM (inactive); in [12], > 100 µM (inactive). Also, the GI50 in [13], in assay [14], in assay [19], in assay [15] and in assay [16] was > 100 µM (inactive) throughout.
As for `CC(=O)NC1C(=O)CC(c2ccccc2)N(C)C1c1ccccc1` (stereo not given), the GI50 in assay [1], in assay [2], in [3], in [4], in assay [5] and in assay [6] was > 100 µM (inactive) throughout. Also, the GI50 is > 100 µM (inactive) in [7]; 82.6 µM (inactive) in [8]; over 100 µM in assay [9]; > 100 µM (inactive) in [10]; > 100 µM (inactive) in assay [11]; > 100 µM (inactive) in assay [12]. Moreover, the GI50 in [13] was > 100 µM (inactive); in assay [14] it was > 100 µM (inactive); in assay [15], 6.17 µM (inactive); in assay [16] it was > 100 µM (inactive); in [17] it was > 100 µM (inactive).
As for `COc1cccc2c1C(=O)c1c(O)c3c(c(O)c1C2=O)CC(O)(C(C)=O)CC3OC1OC(COC(C)=O)C(OC(C)=O)C(OC(C)=O)C1OC(C)=O` (stereo not given), the GI50 was 35.6 µM (inactive) in assay [1]; 0.0276 µM (active) in [2]; > 100 µM (inactive) in assay [18]; 79.4 µM (inactive) in assay [4]; 10.2 µM (inactive) in assay [5]; 55.7 µM (inactive) in [6]. Besides, the GI50 was > 100 µM (inactive) in [7]; 0.515 µM (active) in assay [8]; 47.2 µM in assay [9]; < 0.01 µM (active) in assay [10]; 17.2 µM (inactive) in assay [11]; 55.8 µM (inactive) in [12]. The GI50 in assay [13] is 16.3 µM (inactive); in assay [14], 24.1 µM (inactive); in assay [19], 88.7 µM (inactive); in [15], 29.9 µM (inactive); in assay [16], 18 µM (inactive).
Take `CCCCCCCCCCCC(=O)OCC1OC(n2cc(F)c(=O)[nH]c2=O)C(NC(=O)OCc2ccccc2)C(OC(=O)CCCCCCCCCCC)C1O` (stereo not given): the GI50 in assay [1], in [2], in assay [3], in assay [4], in [5] and in assay [6] was > 100 µM (inactive) throughout. Besides, the GI50 in assay [7] was > 100 µM (inactive); in assay [8], > 100 µM (inactive); in assay [9], over 100 µM; in assay [10] it was > 100 µM (inactive); in [11] it was > 100 µM (inactive); in assay [12], > 100 µM (inactive). Moreover, the GI50 in assay [13], in assay [14], in assay [15], in [16] and in assay [17] was > 100 µM (inactive) throughout.
As for `CC(O[Si](c1ccccc1)(c1ccccc1)C(C)(C)C)[C@H](NC(=O)OC(C)(C)C)C(=O)O[Si](c1ccccc1)(c1ccccc1)C(C)(C)C` (stereo not given in full), the GI50 in assay [1] was 16.5 µM (inactive); in [2], 20 µM (inactive); in [18] it was 8.38 µM (inactive); in assay [3], 11.7 µM (inactive); in assay [4], 13.2 µM (inactive); in assay [5], 18.2 µM (inactive). Further, the GI50 was 16.1 µM (inactive) in [7]; 10.9 µM (inactive) in assay [8]; 5.24 µM in assay [9]; 14.9 µM (inactive) in [10]; 8.04 µM (inactive) in assay [11]; 11.2 µM (inactive) in [12]. Also, the GI50 in assay [13] was 14.9 µM (inactive); in assay [14], 15.9 µM (inactive); in assay [16], 1.46 µM (inactive); in assay [17], > 10 µM (inactive).
As for `CC12CCC3(C1)[C@H](CC2=O)C[C@@H](OC(=O)c1ccccc1)C1C(C)(CO)CCC[C@@]13C` (stereo not given in full), the GI50 in assay [1] was 9.42 µM (inactive); in assay [2] it was 2.29 µM (inactive); in assay [3], 0.681 µM (active); in assay [4] it was 4.35 µM (inactive); in [5] it was 5.41 µM (inactive); in assay [6], 8.32 µM (inactive). The GI50 in assay [7] was 2.37 µM (inactive); in assay [8], 3.65 µM (inactive); in [9], 1.5 µM; in assay [10] it was 0.149 µM (active); in assay [11], 0.322 µM (active); in assay [12], 2.22 µM (inactive). In addition, the GI50 in assay [13] was 6.49 µM (inactive); in [14], 2 µM (inactive); in [15], 2.17 µM (inactive); in assay [16], 1.44 µM (inactive); in assay [17] it was 3.12 µM (inactive).
With `COc1cc([C@@H]2c3cc4c(c(O)c3C[C@H]3COC(=O)[C@@H]32)OCO4)cc(OC)c1OC` [BETA-PELTATIN A], the GI50 in assay [1] was 0.0156 µM (active); in assay [2], 1.8 µM (inactive); in assay [18], 0.0241 µM (active); in [4], 0.0238 µM (active); in [5] it was 0.323 µM (active); in assay [6], 0.015 µM (active). In addition, the GI50 was 0.015 µM (active) in assay [7]; 0.015 µM (active) in assay [8]; 0.015 µM in [9]; 0.0238 µM (active) in assay [11]; 0.015 µM (active) in assay [12]; 0.015 µM (active) in [13]. Further, the GI50 in assay [14] is 21.4 µM (inactive); in assay [15], 0.0267 µM (active); in assay [16], 0.0627 µM (active).

Source of the values: ChEMBL document CHEMBL1201862, “PubChem BioAssay data set” (2004).
